Positions count from the first letter of the chain named.
What was measured:
[1] = biological target: T1, Muscarinic acetylcholine receptor M2 (Rattus norvegicus, UniProt P10980); assay: Positive allosteric modulation of rat muscarinic M2 receptor
T1 sequence (P10980 whole entry): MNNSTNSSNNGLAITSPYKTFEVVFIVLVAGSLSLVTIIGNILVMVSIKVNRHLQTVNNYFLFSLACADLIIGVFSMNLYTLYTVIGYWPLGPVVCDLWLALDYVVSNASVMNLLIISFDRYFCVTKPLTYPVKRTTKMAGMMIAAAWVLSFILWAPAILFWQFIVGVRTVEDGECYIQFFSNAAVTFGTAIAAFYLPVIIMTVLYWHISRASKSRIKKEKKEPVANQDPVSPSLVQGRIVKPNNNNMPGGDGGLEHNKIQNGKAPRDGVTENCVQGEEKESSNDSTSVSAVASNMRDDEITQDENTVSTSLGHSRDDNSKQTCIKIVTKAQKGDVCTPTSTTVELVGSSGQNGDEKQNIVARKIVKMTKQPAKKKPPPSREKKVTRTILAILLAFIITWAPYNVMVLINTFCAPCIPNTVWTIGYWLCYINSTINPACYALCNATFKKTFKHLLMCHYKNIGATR

[2] = biological target: Muscarinic acetylcholine receptor M3 (Rattus norvegicus, UniProt P08483); assay: Positive allosteric modulation of rat muscarinic M3 receptor
[3] = biological target: T2, Muscarinic acetylcholine receptor M1 (Rattus norvegicus, UniProt P08482); assay: Positive allosteric modulation of rat muscarinic M1 receptor
T2 sequence (P08482 whole entry): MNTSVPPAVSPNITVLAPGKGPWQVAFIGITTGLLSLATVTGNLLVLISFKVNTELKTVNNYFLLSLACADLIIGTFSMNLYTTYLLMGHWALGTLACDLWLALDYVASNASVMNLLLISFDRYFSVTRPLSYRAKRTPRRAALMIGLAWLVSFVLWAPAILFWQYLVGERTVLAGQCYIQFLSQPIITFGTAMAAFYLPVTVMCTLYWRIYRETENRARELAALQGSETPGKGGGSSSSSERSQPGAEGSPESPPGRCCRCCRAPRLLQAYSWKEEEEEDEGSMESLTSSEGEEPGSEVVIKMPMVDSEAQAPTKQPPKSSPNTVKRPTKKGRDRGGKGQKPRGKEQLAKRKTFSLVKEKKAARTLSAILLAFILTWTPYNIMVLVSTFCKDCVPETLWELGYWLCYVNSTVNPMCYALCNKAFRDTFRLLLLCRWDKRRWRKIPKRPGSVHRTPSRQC

[4] = biological target: T3, Muscarinic acetylcholine receptor M2 (Homo sapiens, UniProt P08172); assay: Positive allosteric modulation of human muscarinic M2 receptor
T3 sequence (P08172 whole entry): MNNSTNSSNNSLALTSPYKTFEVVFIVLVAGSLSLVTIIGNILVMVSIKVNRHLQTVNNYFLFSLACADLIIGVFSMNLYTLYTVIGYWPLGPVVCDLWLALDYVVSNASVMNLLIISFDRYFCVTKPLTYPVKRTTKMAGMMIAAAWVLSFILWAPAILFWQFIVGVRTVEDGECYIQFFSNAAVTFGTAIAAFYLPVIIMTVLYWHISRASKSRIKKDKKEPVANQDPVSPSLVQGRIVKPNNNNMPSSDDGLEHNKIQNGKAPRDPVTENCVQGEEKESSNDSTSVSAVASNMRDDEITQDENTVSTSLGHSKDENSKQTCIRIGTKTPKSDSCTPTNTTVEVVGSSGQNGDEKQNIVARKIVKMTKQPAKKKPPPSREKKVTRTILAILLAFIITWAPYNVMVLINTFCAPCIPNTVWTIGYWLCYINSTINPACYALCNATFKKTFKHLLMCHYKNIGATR

[5] = biological target: T4, Muscarinic acetylcholine receptor M5 (Homo sapiens) (UniProt P08912); assay: Positive allosteric modulation of human muscarinic M5 receptor relative to acetylcholine
T4 sequence (whole entry): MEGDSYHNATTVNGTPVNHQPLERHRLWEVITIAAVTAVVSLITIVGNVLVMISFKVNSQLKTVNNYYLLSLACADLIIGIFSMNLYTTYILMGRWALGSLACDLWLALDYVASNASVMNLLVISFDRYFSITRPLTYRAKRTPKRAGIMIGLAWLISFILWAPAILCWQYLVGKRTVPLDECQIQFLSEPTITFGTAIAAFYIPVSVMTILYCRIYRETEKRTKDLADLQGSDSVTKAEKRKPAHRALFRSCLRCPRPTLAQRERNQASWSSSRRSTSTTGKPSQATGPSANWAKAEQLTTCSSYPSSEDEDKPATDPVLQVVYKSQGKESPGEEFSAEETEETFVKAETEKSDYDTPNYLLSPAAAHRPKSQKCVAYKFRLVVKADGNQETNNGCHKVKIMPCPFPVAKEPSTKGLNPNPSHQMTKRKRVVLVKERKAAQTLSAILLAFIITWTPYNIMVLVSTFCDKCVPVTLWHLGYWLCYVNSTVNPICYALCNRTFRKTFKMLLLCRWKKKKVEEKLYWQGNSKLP

[6] = biological target: T5, Muscarinic acetylcholine receptor M1 (Homo sapiens, UniProt P11229); assay: Positive allosteric modulation of human muscarinic M1 receptor
T5 sequence (P11229 whole entry): T2 sequence (P08482 whole entry) with V5A, S254T, S309P, K320R, G337A, V413I

[7] = biological target: Muscarinic acetylcholine receptor M3 (Homo sapiens, UniProt P20309); assay: Positive allosteric modulation of human muscarinic M3 receptor
[8] = biological target: T4, Muscarinic acetylcholine receptor M5 (Homo sapiens); assay: Positive allosteric modulation of human muscarinic M5 receptor assessed as fold shift of acetylcholine-induced response at 30 uM
[9] = biological target: T6, Muscarinic acetylcholine receptor M5 (Homo sapiens, UniProt P08912); assay: Positive allosteric modulation of human muscarinic M5 receptor
T6 sequence (P08912 whole entry): T4 sequence (whole entry)

[10] = biological target: T7, Muscarinic acetylcholine receptor M4 (Homo sapiens, UniProt P08173); assay: Positive allosteric modulation of human muscarinic M4 receptor
T7 sequence (P08173 whole entry): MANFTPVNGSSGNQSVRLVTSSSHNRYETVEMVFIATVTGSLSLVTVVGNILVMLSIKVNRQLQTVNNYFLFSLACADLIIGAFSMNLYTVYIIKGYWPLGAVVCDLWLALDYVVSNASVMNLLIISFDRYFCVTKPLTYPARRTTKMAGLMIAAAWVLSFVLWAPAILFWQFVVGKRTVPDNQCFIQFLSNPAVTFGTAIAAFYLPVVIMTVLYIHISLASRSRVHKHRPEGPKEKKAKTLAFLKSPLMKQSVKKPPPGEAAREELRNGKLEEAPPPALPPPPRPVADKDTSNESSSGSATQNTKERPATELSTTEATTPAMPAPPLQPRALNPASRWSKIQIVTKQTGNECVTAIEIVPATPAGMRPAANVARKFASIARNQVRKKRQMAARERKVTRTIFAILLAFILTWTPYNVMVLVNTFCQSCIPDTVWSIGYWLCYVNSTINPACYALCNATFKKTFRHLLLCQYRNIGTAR

[11] = biological target: T8, Muscarinic acetylcholine receptor M5 (Rattus norvegicus) (UniProt P08911); assay: Positive allosteric modulation of rat muscarinic M5 receptor relative to acetylcholine
T8 sequence (whole entry): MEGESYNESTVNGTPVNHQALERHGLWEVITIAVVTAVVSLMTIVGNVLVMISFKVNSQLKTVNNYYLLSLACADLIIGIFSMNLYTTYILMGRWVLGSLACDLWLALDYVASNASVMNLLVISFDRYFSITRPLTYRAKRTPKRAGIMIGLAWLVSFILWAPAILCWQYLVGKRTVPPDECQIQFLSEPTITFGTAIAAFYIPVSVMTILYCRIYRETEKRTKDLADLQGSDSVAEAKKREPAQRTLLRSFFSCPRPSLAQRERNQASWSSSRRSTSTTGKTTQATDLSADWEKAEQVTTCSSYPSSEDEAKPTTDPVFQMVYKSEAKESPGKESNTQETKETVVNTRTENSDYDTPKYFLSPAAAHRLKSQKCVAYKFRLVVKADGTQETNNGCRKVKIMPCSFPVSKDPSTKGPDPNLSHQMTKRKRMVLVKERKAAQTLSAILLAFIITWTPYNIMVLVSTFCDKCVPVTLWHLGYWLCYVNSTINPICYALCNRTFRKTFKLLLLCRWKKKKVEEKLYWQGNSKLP

[12] = biological target: T9, Muscarinic acetylcholine receptor M4 (Rattus norvegicus, UniProt P08485); assay: Positive allosteric modulation of rat muscarinic M4 receptor
T9 sequence (P08485 whole entry): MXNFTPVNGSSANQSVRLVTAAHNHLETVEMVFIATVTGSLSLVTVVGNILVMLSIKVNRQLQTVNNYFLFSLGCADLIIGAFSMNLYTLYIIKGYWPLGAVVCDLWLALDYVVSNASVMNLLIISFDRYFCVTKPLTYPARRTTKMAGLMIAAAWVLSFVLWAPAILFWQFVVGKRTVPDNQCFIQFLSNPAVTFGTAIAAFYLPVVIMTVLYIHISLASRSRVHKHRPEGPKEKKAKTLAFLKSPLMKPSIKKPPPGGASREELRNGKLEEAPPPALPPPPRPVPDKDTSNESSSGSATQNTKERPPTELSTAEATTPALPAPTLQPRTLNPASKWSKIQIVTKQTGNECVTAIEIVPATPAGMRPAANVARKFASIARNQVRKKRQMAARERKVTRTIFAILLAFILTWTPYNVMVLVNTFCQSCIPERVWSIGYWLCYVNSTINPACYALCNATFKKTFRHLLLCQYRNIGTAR

[13] = biological target: T4, Muscarinic acetylcholine receptor M5 (Homo sapiens); assay: Positive allosteric modulation of human muscarinic M5 receptor at 3 uM relative to acetylcholine

Chain of Muscarinic acetylcholine receptor M3 (Homo sapiens, UniProt P20309) (P20309 whole entry): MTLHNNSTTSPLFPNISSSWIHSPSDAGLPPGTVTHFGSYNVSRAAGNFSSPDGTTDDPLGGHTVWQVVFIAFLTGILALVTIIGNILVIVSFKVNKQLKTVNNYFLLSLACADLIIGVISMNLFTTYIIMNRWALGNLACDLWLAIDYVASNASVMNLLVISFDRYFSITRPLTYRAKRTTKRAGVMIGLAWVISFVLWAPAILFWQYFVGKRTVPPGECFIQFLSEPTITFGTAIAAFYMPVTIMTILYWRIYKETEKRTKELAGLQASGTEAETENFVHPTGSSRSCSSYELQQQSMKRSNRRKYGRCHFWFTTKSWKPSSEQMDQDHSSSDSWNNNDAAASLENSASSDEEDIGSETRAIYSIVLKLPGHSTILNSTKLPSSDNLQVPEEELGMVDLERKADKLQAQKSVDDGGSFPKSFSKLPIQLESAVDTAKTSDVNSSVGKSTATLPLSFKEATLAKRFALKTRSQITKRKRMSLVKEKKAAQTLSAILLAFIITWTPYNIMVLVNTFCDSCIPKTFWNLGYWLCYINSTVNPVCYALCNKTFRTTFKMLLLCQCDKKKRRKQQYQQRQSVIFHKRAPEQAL
Chain of Muscarinic acetylcholine receptor M3 (Rattus norvegicus, UniProt P08483) (P08483 whole entry): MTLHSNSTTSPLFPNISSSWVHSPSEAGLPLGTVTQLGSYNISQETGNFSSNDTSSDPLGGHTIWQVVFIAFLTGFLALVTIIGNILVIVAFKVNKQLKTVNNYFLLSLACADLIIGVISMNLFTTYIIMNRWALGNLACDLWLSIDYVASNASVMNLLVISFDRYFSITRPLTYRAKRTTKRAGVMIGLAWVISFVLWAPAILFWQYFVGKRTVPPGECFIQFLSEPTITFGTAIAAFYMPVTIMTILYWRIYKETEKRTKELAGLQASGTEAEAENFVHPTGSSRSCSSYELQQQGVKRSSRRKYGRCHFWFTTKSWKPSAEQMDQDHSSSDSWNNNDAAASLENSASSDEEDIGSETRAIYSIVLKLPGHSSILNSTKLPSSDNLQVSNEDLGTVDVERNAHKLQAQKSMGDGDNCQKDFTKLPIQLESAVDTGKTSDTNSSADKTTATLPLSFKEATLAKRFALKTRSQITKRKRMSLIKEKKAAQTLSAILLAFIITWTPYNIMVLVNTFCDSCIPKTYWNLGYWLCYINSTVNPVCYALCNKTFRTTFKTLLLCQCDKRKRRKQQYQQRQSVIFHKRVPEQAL

| SMILES | EC50 [4] [µM] | Emax [5] [%] | EC50 [6] [µM] | EC50 [7] [µM] | fold change (FC) [8] | EC50 [9] [µM] | EC50 [10] [µM] | other results |
| --- | --- | --- | --- | --- | --- | --- | --- | --- |
| O=C1C(=O)N(CCOc2ccccc2)c2ccc(OC(F)(F)F)cc21 | > 30 | 91 | > 30 | > 30 | 20 | 0.41 | > 30 | EC50 [1]: > 30 µM; EC50 [2]: > 30 µM; EC50 [3]: > 30 µM; fold change (FC) [11]: 20; EC50 [12]: > 30 µM |
| COc1ccc(CN2C(=O)C(=O)c3cc(OC(F)(F)F)ccc32)cc1 | > 30 | – | > 30 | > 30 | 14 | – | > 30 | fold change (FC) [11]: 20 |
| O=C1C(=O)N(Cc2ccc(Oc3cccc(F)n3)cc2)c2ccc(OC(F)(F)F)cc21 | > 30 | – | > 30 | > 30 | 6 | – | > 30 | – |
| Cc1cccc(OCCN2C(=O)C(=O)c3cc(OC(F)(F)F)ccc32)c1 | – | 91 | – | – | – | 0.53 | – | – |
| COc1ccc(CN2C(=O)C(O)(C[N+](=O)[O-])c3cc(OC(F)(F)F)ccc32)cc1 (stereo not given) | – | 75 | – | – | – | 1.4 | – | – |
| O=C1C(=O)N(CCOc2ccc(Oc3ccccc3)cc2)c2ccc(OC(F)(F)F)cc21 | – | 93 | – | – | – | 1.05 | – | – |
| O=C1C(=O)N(Cc2ccc(Oc3ccccc3)cc2)c2ccc(OC(F)(F)F)cc21 | > 30 | – | > 30 | > 30 | 5 | – | > 30 | – |
| Cn1cc(-c2ccc(CN3C(=O)C(=O)c4ccccc43)c(F)c2)cn1 | > 30 | 45 | – | > 30 | – | – | > 30 | – |
| Cc1cccc2c1N(CCOc1ccccc1)C(=O)C2=O | – | – | – | – | – | – | – | Emax [13]: 31% |
| COc1ccc(CN2C(=O)C(O)(c3ccc(F)nc3)c3cc(OC(F)(F)F)ccc32)cc1 (stereo not given) | – | 74 | – | – | – | 2.2 | – | – |
| O=C1C(=O)N(CCOc2ccc(Cl)cc2)c2ccc(OC(F)(F)F)cc21 | – | 92 | – | – | – | 0.45 | – | – |
| COc1ccc(OCCN2C(=O)C(=O)c3cc(OC(F)(F)F)ccc32)cc1 | – | 89 | – | – | – | 0.59 | – | – |

Source: ChEMBL document CHEMBL2380197, “Discovery of ML326: The first sub-micromolar, selective M5 PAM” (Bioorg Med Chem Lett, 2013)
